These results are taken from patent US20240043427A1 (Gilead Sciences, Inc., priority 2020, published 2024).

Chain of CD73 (P21589 27-574): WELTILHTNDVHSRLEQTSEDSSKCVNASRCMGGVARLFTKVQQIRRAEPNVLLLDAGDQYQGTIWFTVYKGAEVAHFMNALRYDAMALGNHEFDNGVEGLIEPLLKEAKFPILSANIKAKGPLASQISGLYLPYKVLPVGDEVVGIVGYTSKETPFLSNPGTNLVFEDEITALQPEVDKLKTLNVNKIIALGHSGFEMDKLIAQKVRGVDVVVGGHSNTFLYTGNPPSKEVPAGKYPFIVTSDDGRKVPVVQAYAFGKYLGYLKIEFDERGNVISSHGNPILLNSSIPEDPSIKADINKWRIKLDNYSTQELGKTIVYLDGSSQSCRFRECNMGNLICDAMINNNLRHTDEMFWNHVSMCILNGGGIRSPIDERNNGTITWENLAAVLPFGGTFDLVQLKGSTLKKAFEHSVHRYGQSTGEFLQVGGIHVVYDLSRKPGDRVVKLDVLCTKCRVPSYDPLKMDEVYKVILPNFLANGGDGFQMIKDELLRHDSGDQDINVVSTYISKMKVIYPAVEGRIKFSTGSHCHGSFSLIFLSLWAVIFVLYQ

This assay concerns the target CD73 (Homo sapiens (Human), UniProt P21589). In kind it is biochemical. The conditions noted are these: 1 mM NaH2PO4 in enzyme buffer, CD73 0.3 nM, AMP 15 uM.
As to `O=c1[nH]cc(-c2cc([C@H]3C[C@@H]3c3ccc4c(F)nn(CC(F)(F)F)c4c3)c3nccn3n2)c(=O)[nH]1` (racemic) [Example 117, 5-(8-((1S,2S)-2-(3-fluoro-1-(2,2,2-trifluoroethyl)-1H-indazol-6-yl)cyclopropyl)imidazo[1,2-b]pyridazin-6-yl)pyrimidine-2,4(1H,3H)-dione], inhibition was half-maximal at 0.89 nM (IC50).

Compound `O=c1[nH]cc(-c2cc([C@H]3C[C@@H]3c3ccc4cnn(CC5CC5(F)F)c4c3)c3nccn3n2)c(=O)[nH]1` (mixture of isomers) [Example 118, 5-(8-((1S,2S)-2-(1-((2,2-difluorocyclopropyl)methyl)-1H-indazol-6-yl)cyclopropyl)imidazo[1,2-b]pyridazin-6-yl)pyrimidine-2,4(1H,3H)-dione] showed an IC50 of 0.79 nM.

`O=c1[nH]cc(-c2cc([C@H]3C[C@@H]3c3cc4c(ccn4CC(F)(F)F)cn3)c3nccn3n2)c(=O)[nH]1` (racemic) [Example 127, 5-(8-((1S,2S)-2-(1-(2,2,2-trifluoroethyl)-1H-pyrrolo[3,2-c]pyridin-6-yl)cyclopropyl)imidazo[1,2-b]pyridazin-6-yl)pyrimidine-2,4(1H,3H)-dione] yielded a 50% inhibitory concentration (IC50) of 1.13 nM.

Compound `O=c1[nH]cc(-c2cc([C@H]3C[C@@H]3c3ccc4c(C5CC5)nn(CC(F)(F)F)c4c3)c3nccn3n2)c(=O)[nH]1` (racemic) [Example 128, 5-(8-((1S,2S)-2-(3-cyclopropyl-1-(2,2,2-trifluoroethyl)-1H-indazol-6-yl)cyclopropyl)imidazo[1,2-b]pyridazin-6-yl)pyrimidine-2,4(1H,3H)-dione] returned an IC50 of 1.84 nM.

Turning to `O=c1[nH]cc(-c2cc([C@H]3C[C@@H]3c3ccc4cnn(CC5CC5)c4c3)c3nccn3n2)c(=O)[nH]1` (racemic) [Example 130, 5-(8-((1S,2S)-2-(1-(cyclopropylmethyl)-1H-indazol-6-yl)cyclopropyl)imidazo[1,2-b]pyridazin-6-yl)pyrimidine-2,4(1H,3H)-dione], 1.01 nM corresponded to half-maximal inhibition (IC50).

With `O=c1[nH]cc(-c2cc([C@H]3C[C@@H]3c3ccc4ncsc4c3)c3nc(C4CC4)cn3n2)c(=O)[nH]1` (racemic) [Example 143, 5-(8-((1S,2S)-2-(benzo[d]thiazol-6-yl)cyclopropyl)-2-cyclopropylimidazo[1,2-b]pyridazin-6-yl)pyrimidine-2,4(1H,3H)-dione], it took 5.69 nM to reach half-maximal inhibition (IC50).

`N#Cc1ccc([C@H]2C[C@@H]2c2cc(-c3c[nH]c(=O)[nH]c3=O)nn3c(F)cnc23)nc1` (racemic) [Example 151, 6-((1S,2S)-2-(6-(2,4-dioxo-1,2,3,4-tetrahydropyrimidin-5-yl)-3-fluoroimidazo[1,2-b]pyridazin-8-yl)cyclopropyl)nicotinonitrile]: the IC50 worked out at 1.36 nM.

`O=c1[nH]cc(-c2cc([C@H]3C[C@@H]3c3ccc4cccnc4c3)c3nccn3n2)c(=O)[nH]1` (racemic) [Example 154, 5-(8-((1S,2S)-2-(quinolin-7-yl)cyclopropyl)imidazo[1,2-b]pyridazin-6-yl)pyrimidine-2,4(1H,3H)-dione]: the IC50 was determined as 1.56 nM.

With `N#Cc1ccc([C@H]2C[C@@H]2c2cc(-c3c[nH]c(=O)[nH]c3=O)nn3ccnc23)nc1` (racemic) [Example 155, 6-((1S,2S)-2-(6-(2,4-dioxo-1,2,3,4-tetrahydropyrimidin-5-yl)imidazo[1,2-b]pyridazin-8-yl)cyclopropyl)nicotinonitrile], the IC50 was determined as 2.04 nM.

The compound `O=c1[nH]cc(-c2cc([C@H]3C[C@@H]3c3ccc4cnccc4c3)c3nccn3n2)c(=O)[nH]1` (racemic) [Example 156, 5-(8-((1S,2S)-2-(isoquinolin-6-yl)cyclopropyl)imidazo[1,2-b]pyridazin-6-yl)pyrimidine-2,4(1H,3H)-dione] had an IC50 of 0.95 nM.

On to `O=c1[nH]cc(-c2cc([C@H]3C[C@@H]3c3ccc4ncccc4c3)c3nccn3n2)c(=O)[nH]1` (racemic) [Example 157, 5-(8-((1S,2S)-2-(quinolin-6-yl)cyclopropyl)imidazo[1,2-b]pyridazin-6-yl)pyrimidine-2,4(1H,3H)-dione], for which the IC50 was determined as 1.06 nM.

For the compound `O=c1[nH]cc(-c2cc([C@H]3C[C@@H]3c3ccnc(C(F)(F)F)c3)c3nccn3n2)c(=O)[nH]1` (racemic) [Example 160, 5-(8-((1S,2S)-2-(2-(trifluoromethyl)pyridin-4-yl)cyclopropyl)imidazo[1,2-b]pyridazin-6-yl)pyrimidine-2,4(1H,3H)-dione], the midpoint of inhibition, the IC50, lay at 15.4 nM.

Compound `O=c1[nH]cc(-c2cc([C@H]3C[C@@H]3c3ccncc3F)c3nccn3n2)c(=O)[nH]1` (racemic) [Example 161, 5-(8-((1S,2S)-2-(3-fluoropyridin-4-yl)cyclopropyl)imidazo[1,2-b]pyridazin-6-yl)pyrimidine-2,4(1H,3H)-dione] yielded a half-inhibitory concentration (IC50) of 4.48 nM.

For the compound `O=c1[nH]cc(-c2cc([C@H]3C[C@@H]3c3cnc4ccccc4c3)c3nccn3n2)c(=O)[nH]1` (racemic) [Example 163, 5-(8-((1S,2S)-2-(quinolin-3-yl)cyclopropyl)imidazo[1,2-b]pyridazin-6-yl)pyrimidine-2,4(1H,3H)-dione], the IC50 amounted to 2.13 nM.

`O=c1[nH]cc(-c2cc([C@H]3C[C@@H]3c3cncc(F)c3)c3nccn3n2)c(=O)[nH]1` (racemic) [Example 164, 5-(8-((1S,2S)-2-(5-fluoropyridin-3-yl)cyclopropyl)imidazo[1,2-b]pyridazin-6-yl)pyrimidine-2,4(1H,3H)-dione] came in with an IC50 of 3.58 nM.

As for `O=c1[nH]cc(-c2cc([C@H]3C[C@@H]3c3ccc(C(F)(F)F)cc3F)c3nccn3n2)c(=O)[nH]1` (racemic) [Example 165, 5-(8-((1S,2S)-2-(2-fluoro-4-(trifluoromethyl)phenyl)cyclopropyl)imidazo[1,2-b]pyridazin-6-yl)pyrimidine-2,4(1H,3H)-dione], the IC50 was found to be 5.06 nM.

Compound `O=c1[nH]cc(-c2cc([C@H]3C[C@@H]3c3cccc4ccncc34)c3nccn3n2)c(=O)[nH]1` (racemic) [Example 166, 5-(8-((1S,2S)-2-(isoquinolin-8-yl)cyclopropyl)imidazo[1,2-b]pyridazin-6-yl)pyrimidine-2,4(1H,3H)-dione] returned an IC50 of 43 nM.

For `O=c1[nH]cc(-c2cc([C@H]3C[C@@H]3c3ccnc4ccccc34)c3nccn3n2)c(=O)[nH]1` (racemic) [Example 167, 5-(8-((1S,2S)-2-(quinolin-4-yl)cyclopropyl)imidazo[1,2-b]pyridazin-6-yl)pyrimidine-2,4(1H,3H)-dione], the IC50 is 33 nM.

`O=c1[nH]cc(-c2cc([C@H]3C[C@@H]3c3cccc4cnccc34)c3nccn3n2)c(=O)[nH]1` (racemic) [Example 168, 5-(8-((1S,2S)-2-(isoquinolin-5-yl)cyclopropyl)imidazo[1,2-b]pyridazin-6-yl)pyrimidine-2,4(1H,3H)-dione] came in with a 50% inhibitory concentration (IC50) of 72.5 nM.

With `CCOC(=O)c1cn2nc(-c3c[nH]c(=O)[nH]c3=O)cc([C@H]3C[C@@H]3c3ccc(F)cc3)c2n1` (racemic) [Example 172, ethyl 6-(2,4-dioxo-1,2,3,4-tetrahydropyrimidin-5-yl)-8-((1S,2S)-2-(4-fluorophenyl)cyclopropyl)imidazo[1,2-b]pyridazine-2-carboxylate], inhibition was half-maximal at 13.9 nM (IC50).
